Series [1] deals with CD4+/Foxp3+ T-cells. As to the kind of experiment: Foxp3 induction in human total PBMCs or sorted T-cells. The settings on record: 3 ng/ml; for percentage of CD4+/Foxp3+ T-cells: five days. It counts as cell-based. The procedure:
2×10^5 Total PBMCs or sorted T-cells (CD3^+) were cultured in 96-well plates in the presence of ascending doses of Compound 2 ranging from 0 to 3 ng/ml for five days. On day 5, cells were washed and stained for CD3 and CD4 for 30 minutes on ice, then cells were washed with PBS and stained with viability dye to exclude dead cells. Stained cells were fixed/permeabilized and further stained for Foxp3. Finally, cells were washed and fixed for acquisition by Attune NXT flow cytometer. Data were analyzed by FlowJov10.

In series [2] the test system is Foxp3+/CD4+ T-cells of MS patients. As to the kind of experiment: PBMCs of multiple sclerosis patients treated ex vivo. The series is classed as cell-based, human. The following applies: up to 2.5 μM, five days, six subjects. The procedure: Total human PBMCs were isolated from six subjects with confirmed diagnosis of MS. On Day 0, 2×10^5 cells/well were incubated in a 96 round bottomed-well plate alone or with up to 2.5 μM Compound 2 for five days. On Day 5, cells were collected, washed and stained for surface staining (CD3, CD4), then viability dye to exclude dead cells. Intranuclear staining was performed after cell fixation and permeabilization for transcription factor FoxP3. Cells were washed and fixed for acquisition by Attune NXT flow cytometer. Data were analyzed by FlowJov10.

In series [3] the test system is MOG35-55-induced murine EAE model. As to the kind of experiment: Induction/maintenance treatment paradigm in MOG35-55-induced murine EAE model (Example 9). It counts as in vivo, mice. The method, then: Compound 2, natalizumab and DMF were prepared as described in Example 8. Table 5 (see Example 4) details the expected clinical symptoms and scoring criteria used in this study.
This study was designed to evaluate the therapeutic effects of Compound 2 versus natalizumab in a treatment induction/maintenance paradigm (induction cohort), and Compound 2 versus DMF after natalizumab (maintenance cohort). In the induction cohorts, animals were randomized 2:1:1 natalizumab:Compound 2:control when they reached a score of 2.5, as per FIG. 6A. Animals in the natalizumab cohort were given 100 μg natalizumab/mouse every 3 days for 3 doses before being randomized to the maintenance cohort. Animals randomized into the maintenance cohort after natalizumab received maintenance doses of DMF or Compound 2 (1:1 randomization), as per their group assignment for 14 days. Animals in the Compound 2 induction cohort were dosed with 30 μg Compound 2/mouse SC QD for a maximum of 7 days, or 3 consecutive days of disease score <2.5, at which time they were placed on a maintenance dose of 3 μg/mouse SC QD for 14 days. All animals in all groups were monitored for 14 days after the last dose for disease score and survival.
Disease control (induction therapy): Disease control was defined as maintaining a clinical score of 2.5 or less after randomization. Animals in the different treatment groups were monitored after the 2:1:1 randomization. Clinical scores were recorded daily for all animals and plotted over time. A score of >2.5 was recorded as an event and analyzed by survival analysis in GraphPad Prism 9. Animals not reaching a clinical score of 2.5 by the end of the induction period (day 7) were assigned a score of zero for the survival analysis.
Survival (induction therapy): Death due to disease (clinical score 5) during the treatment induction period was recorded as an event “1”, animals surviving until the end of the induction period, day 7 after randomization, were censored on day 7 for the purposes of survival analysis.
Disease control (maintenance therapy): At the end of the induction period with natalizumab, animals were randomized 1:1 to the DMF maintenance group or Compound 2 maintenance group as per FIG. 6A. Animals were dosed for 14 days, and clinical scores were monitored daily.
Survival (maintenance therapy): Death by disease (clinical score of 5) was recorded as an event “1”, death due to ulceration or ex vivo analysis was recorded as “0”. Animals surviving until the end of the study were recorded as “0” on the last day of the study. Survival analysis was done in GraphPad Prism 9.

The subject of series [4] is NMO mouse model. As to the kind of experiment: AQP4-p201-p220-induced neuromyelitis optica mouse model, fundoscopy. It counts as in vivo, mice. The settings on record: number of eyes since randomization, 3 μg SC daily, 20 eyes. The method, then:
NMO is a CNS autoimmune inflammatory demyelinating disease that causes optico-spinal disorder leading to paralysis and vision loss. NMO mouse model was established by using AQP4-p201-p220 peptide (from Genemed Synthesis Inc.). Briefly, C57BL/6 mice (n=30) were immunized on day 0 with 100 micrograms of the AQP4-p201-p220 peptide emulsified in CFA. Mice were injected subcutaneously at the tail base under anesthesia. On the day of injection (Day 0) and two days later, mice received intraperitoneal injection of pertussis toxin (PTx) in PBS at 200 ng/mouse/dose (0.1 ml).
Prior to immunizing the mice on day 0, both eyes of each of the mice were imaged by fundoscopy. Fundoscopy was employed to study (a) optic disc inflammation, and (b) retinal damage (exudates as evidence of inflammation). Mice were monitored for disease onset daily after one week of immunization (day 7) for clinical symptoms, as per the scoring system developed by Ramadan et al., Brain 2016. Mice with a score of 1.0 or any […] symptoms were immediately randomized into either group A or group B treatment regimens to receive up to 14 days of treatment. Group A (n=10) received Compound 2 3 μg SC daily, and Group B (n=8) served as a control and was treated with a placebo.
Fundoscopy was conducted on day 6 post-immunization and was later performed approximately once every four days, i.e., on days 9, 13, 16, 22, and 26. Each eye was scored for inflammation in the optic disc and retinal damage evident by the appearance of ‘exudates’ (blotchiness) in the fundus image. Eye samples were collected during the onset of disease and post-randomization after at least 9-12 days of treatment and on day 14 (end of study) to assess the histology of both the optic nerve and the retina.

Series [5] in a line: Pilot stability study of oral solution with HPBCD. The series is classed as physicochemical. The method, then:
Oral dosing solutions of different concentrations of Compound 2 were compounded ranging from 0.02 mg/ml to 3 mg/ml using a 1:80 ratio of Compound 2:HPBCD. Briefly, the compounding was performed by weighing and dissolving HPBCD in sterile HPLC grade water. Then, Compound 2 was weighed and added to the HPBCD solution in an appropriate container. To enhance dissolution, sonication and magnetic stirring were alternated to obtain a clear solution. Then, the solution was dispensed into PET amber bottles, appropriately labeled and stored under refrigeration until dosing.
A pilot stability study was performed on a 0.7 mg/ml Compound 2 oral solution at three temperatures: −20° C., 4° C., and room temperature (RT).
Samples were also subjected to three freeze-thaw cycles (−20° C. to room temperature). Solutions were evaluated for clarity. […] The potency of these solutions was also determined using an LC/MS assay.

Setting [6] is: Compound 2 induction followed by Compound 2 maintenance.

Regarding `N[C@@H](CNC(=O)Cc1ccc(OCc2cccc3ccccc23)cc1)C(=O)O` [Compound 2, (S)-2-Amino-3-(2-(4-(naphthalen-1-ylmethoxy)phenyl)acetamido)propanoic acid], in series [1] (isolated T-cells (sorted)), the “percentage of CD4+/Foxp3+ T-cells” value is listed as 2.27% and the “increase of percentage of CD4+/Foxp3+ T-cells” value stood at 606%. Further, in series [1] (total PBMC), the “percentage of CD4+/Foxp3+ T-cells” value is reported as 5.2% and the “increase of percentage of CD4+/Foxp3+ T-cells” value amounted to 171%. The “MS patients whose T-cells responded (increase in percentage of Foxp3+/CD4+ T-cells)” value in series [2] is “five out of six”. Besides, in series [3] (setting [6]), the “clinical score on the last day of dosing” value is listed as 2.2 (SD=0.3) and the “mean score on the first day of maintenance therapy” value was 2.3 (SD=0.4). The “mice showing clinical score improvement and switched to maintenance before end of induction period” value in series [3] (induction period) is recorded as “at least 4 out of the 10”. In addition, in series [3] (induction period, day 7 after randomization), the “animals that survived the treatment induction period” value is on record as 9/9. For the same compound, the “last measured score, day 7 after initiation of maintenance” value in series [3] (maintenance after natalizumab induction) is given as 2.5 (SD=0). The “mortality rate in maintenance cohort” value in series [3] (maintenance after natalizumab induction, n=4 in each group) is on record as 0%. Further, in series [3] (maintenance after natalizumab induction, to end of study), the “survival in maintenance cohort” value is given as “All animals randomized to Compound 2 maintenance after natalizumab induction survived until the end of the study”. The “mean clinical score by day 7 of induction” value in series [3] (randomized at score 2.5, Compound 2 30 μg SC) was 2.25 (SD=0.26). In series [3] (randomized at score 2.5, natalizumab 100 μg/mouse every 3 days, Compound 2 30 μg SC), the “animals that progressed to a clinical score >2.5 during induction” value is given as 0/10. In addition, in series [4], the “Cleared/Clearing eyes (recovery)” value worked out at 4, the Maintained/No change amounted to 14 and the Worsening conditions was found to be 0. Also, in series [5] (0.7 mg/ml oral solution, −20° C., 4° C. and room temperature), the potency on storage result is on record as “Potency was maintained over a minimum period of three months at all storage conditions”. In addition, in series [5] (3-month storage and several freeze-thaw cycles), the “potency after storage and freeze-thaw cycles, LC/MS assay” value is reported as “Potency was maintained”. For the same compound, the “clarity after three freeze-thaw cycles” value in series [5] (oral solution, −20° C. to room temperature) was “No precipitation was observed, and all solutions maintained clarity”.
